Experimental data taken from patent publication US5716797A, “Stable two-part reagent for the measurement of creatine kinase activity” (Wako Pure Chemical Industries, Ltd., priority 1995, dated 1998).

Columns and labels:
[1] = Solubility of SH compounds in the enzyme solution; conditions: as CK reactivator in the enzyme solution
[2] = test system: creatine kinase (CK) in human serum; test: CK activity measured with enzyme solutions containing SH compounds as CK reactivator, fresh and after 1 month of storage (Example 1 / Comparative Example 1); type: biochemical; conditions: for CK activity value, Average: average of 5 samples; for CK activity, relative value: NAC just after preparation = 100%
Protocol: The resulting solution was adjusted to pH 6.7 with sodium hydroxide and stored at a predetermined temperature for a predetermined period. The thus obtained solution were used as enzyme solutions.
Five fresh human serum samples were used.
To 8 μl of each sample was added 320 μl of each enzyme solution, followed by preincubation for 5 minutes. Then, 80 μl of the substrate solution was added to initiate the reaction and the change of absorbance per minute was measured for 3 minutes from 2 minutes after the addition of the substrate solution. The CK activity value was calculated from the molecular extinction coefficient of the NADPH produced.
As a measuring apparatus, an Autoanalyzer Hitachi Model 7150 was used, and the measurement was carried out at 37° C. by use of dual wavelength (λ1 =405 nm, λ2 =340 nm).
Enzyme solutions were prepared in the same manner as in Example 1 by use of the same reagents as in Example 1 except for using a predetermined concentration(s) of one or two SH compounds properly selected from the above-mentioned CK reactivators, in place of the CK reactivator(s) used in Example 1.
CK activity was measured in the same manner as in Example 1.

[3] = test system: creatine kinase (CK) in human serum; test: CK activity measured with enzyme and substrate solutions stored at 10° C. for up to 7 months (Example 2 / Comparative Example 2); type: biochemical; conditions: for relative value of CK activity: enzyme solution prepared at the time of use = 100%
Protocol: An enzyme solution was prepared in the same manner as in Example 1 by use of the same reagents as in Example 1 except for using 100 mM of TG in place of the CK reactivator(s) used in Example 1.
Different 10 fresh human serum samples were used for different measuring operations.
CK activity was measured by the same procedure as described in Example 1 except for using the above-mentioned enzyme solution and substrate solution, both solutions stored at 10° C. for a predetermined time, and each of the above-mentioned samples.
An enzyme solution was prepared in the same manner as in Example 1 by use of the same reagents as in Example 1 except for using 26 mM of NAC in place of the CK reactivator(s) used in Example 1.
CK activity was measured by the same procedure as described in Example 1 except for using the above-mentioned enzyme solution and substrate solution, both solutions stored at 10° C. for a predetermined period, and each of the above-mentioned samples.

[4] = Sample 1, enzyme solution just after preparation, TG 100 mM, 2ME 26 mM, 2MES 26 mM, NAC 26 mM
[5] = Sample 1, enzyme solution stored at 10° C. for 1 month, TG 100, 2ME 26, 2MES 26, NAC 26, L-cysteine 6.5, GSH 12, TDG 5, DTT 6.5 mM
[6] = Sample 1, enzyme solution stored at 20° C. for 1 month, TG 100, 2ME 26, 2MES 26, NAC 26, L-cysteine 6.5, GSH 12, TDG 5, DTT 6.5 mM
[7] = Sample 2, enzyme solution just after preparation, TG 100 mM, 2ME 26 mM, 2MES 26 mM, NAC 26 mM
[8] = Sample 2, enzyme solution stored at 10° C. for 1 month, TG 100, 2ME 26, 2MES 26, NAC 26, L-cysteine 6.5, GSH 12, TDG 5, DTT 6.5 mM
[9] = Sample 2, enzyme solution stored at 20° C. for 1 month, TG 100, 2ME 26, 2MES 26, NAC 26, L-cysteine 6.5, GSH 12, TDG 5, DTT 6.5 mM
[10] = Sample 3, enzyme solution just after preparation, TG 100 mM, 2ME 26 mM, 2MES 26 mM, NAC 26 mM
[11] = Sample 3, enzyme solution stored at 10° C. for 1 month, TG 100, 2ME 26, 2MES 26, NAC 26, L-cysteine 6.5, GSH 12, TDG 5, DTT 6.5 mM
[12] = Sample 3, enzyme solution stored at 20° C. for 1 month, TG 100, 2ME 26, 2MES 26, NAC 26, L-cysteine 6.5, GSH 12, TDG 5, DTT 6.5 mM
[13] = Sample 4, enzyme solution just after preparation, TG 100 mM, 2ME 26 mM, 2MES 26 mM, NAC 26 mM
[14] = Sample 4, enzyme solution stored at 10° C. for 1 month, TG 100, 2ME 26, 2MES 26, NAC 26, L-cysteine 6.5, GSH 12, TDG 5, DTT 6.5 mM
[15] = Sample 4, enzyme solution stored at 20° C. for 1 month, TG 100, 2ME 26, 2MES 26, NAC 26, L-cysteine 6.5, GSH 12, TDG 5, DTT 6.5 mM
[16] = Sample 5, enzyme solution just after preparation, TG 100 mM, 2ME 26 mM, 2MES 26 mM, NAC 26 mM
[17] = Sample 5, enzyme solution stored at 10° C. for 1 month, TG 100, 2ME 26, 2MES 26, NAC 26, L-cysteine 6.5, GSH 12, TDG 5, DTT 6.5 mM
[18] = Sample 5, enzyme solution stored at 20° C. for 1 month, TG 100, 2ME 26, 2MES 26, NAC 26, L-cysteine 6.5, GSH 12, TDG 5, DTT 6.5 mM
[19] = enzyme solution just after preparation, TG 100 mM, 2ME 26 mM, 2MES 26 mM, NAC 26 mM
[20] = enzyme solution stored at 10° C. for 1 month, TG 100, 2ME 26, 2MES 26, NAC 26, L-cysteine 6.5, GSH 12, TDG 5, DTT 6.5 mM
[21] = enzyme solution stored at 20° C. for 1 month, TG 100, 2ME 26, 2MES 26, NAC 26, L-cysteine 6.5, GSH 12, TDG 5, DTT 6.5 mM
[22] = enzyme solution just after preparation
[23] = enzyme solution stored at 10° C. for 1 month
[24] = enzyme solution stored at 20° C. for 1 month
[25] = enzyme solution prepared at the time of use, 1 month measurement, 10 samples
[26] = enzyme solution prepared at the time of use, 3 month measurement, 10 samples
[27] = enzyme solution prepared at the time of use, 6 month measurement, 10 samples
[28] = enzyme solution prepared at the time of use, 7 month measurement, 10 samples
[29] = just after preparation, average of 10 human serum samples, TG 100 mM or NAC 26 mM
[30] = solutions stored at 10° C. for 1 month, 10 samples
[31] = solutions stored at 10° C. for 3 month, 10 samples
[32] = solutions stored at 10° C. for 6 month, 10 samples
[33] = solutions stored at 10° C. for 7 month, 10 samples

SMILES | CK activity value [2, 4] | CK activity value [2, 5] | CK activity value [2, 6] | CK activity value [2, 7] | CK activity value [2, 8] | CK activity value [2, 9] | CK activity value [2, 10] | CK activity value [2, 11] | CK activity value [2, 12] | CK activity value [2, 13] | CK activity value [2, 14] | CK activity value [2, 15] | CK activity value [2, 16] | CK activity value [2, 17] | CK activity value [2, 18] | CK activity value, Average [2, 19] | CK activity value, Average [2, 20] | CK activity value, Average [2, 21] | CK activity, relative value [2, 22] | CK activity, relative value [2, 23] | other results
Nc1cc(O)nc(S)n1.O [AHMP, 4-amino-6-hydroxy-2-mercaptopyrimidine monohydrate] |  |  |  |  |  |  |  |  |  |  |  |  |  |  |  |  |  |  |  |  | solubility [1]: low solubility
CC(=O)N[C@@H](CS)C(=O)O [NAC, N-acetylcysteine] | 183 IU/l | 184 IU/l | 166 IU/l | 544 IU/l | 550 IU/l | 499 IU/l | 151 IU/l | 152 IU/l | 136 IU/l | 56 IU/l | 55 IU/l | 50 IU/l | 87 IU/l | 88 IU/l | 78 IU/l | 204 IU/l | 206 IU/l | 186 IU/l | 100.0% | 101.0% | CK activity, relative value [2, 24]: 91.2%; measured value of CK activity after storage ([3]; after 3 months of storage at 10° C.): markedly lowered; average of CK activity values [3, 25]: 196 IU/l.; average of CK activity values [3, 26]: 192 IU/l.; average of CK activity values [3, 27]: 162 IU/l.; average of CK activity values [3, 28]: 192 IU/l.; average of CK activity values [3, 29]: 234 IU/l.; average of CK activity values [3, 30]: 190 IU/l.; average of CK activity values [3, 31]: 146 IU/l.; average of CK activity values [3, 32]: 64 IU/l.; average of CK activity values [3, 33]: 62 IU/l.; relative value of CK activity ([3]; stored at 10° C. for 1 month): 96.9%; relative value of CK activity ([3]; stored at 10° C. for 3 month): 76.0%; relative value of CK activity ([3]; stored at 10° C. for 6 month): 39.5%; relative value of CK activity ([3]; stored at 10° C. for 7 month): 32.3%
OCC(O)CS (centres unmarked) [TG, thioglycerol] | 184 IU/l | 183 IU/l | 180 IU/l | 553 IU/l | 556 IU/l | 549 IU/l | 151 IU/l | 154 IU/l | 152 IU/l | 58 IU/l | 57 IU/l | 57 IU/l | 88 IU/l | 88 IU/l | 88 IU/l | 207 IU/l | 208 IU/l | 206 IU/l | 101.4% | 101.9% | retaining CK-reactivating ability for a long period of time in an aqueous solution [2]: capable of retaining CK-reactivating ability for a long period of time; CK activity, relative value [2, 24]: 100.9%; average of CK activity values [3, 25]: 204 IU/l.; average of CK activity values [3, 26]: 200 IU/l.; average of CK activity values [3, 27]: 168 IU/l.; average of CK activity values [3, 28]: 192 IU/l.; average of CK activity values [3, 29]: 240 IU/l.; average of CK activity values [3, 30]: 202 IU/l.; average of CK activity values [3, 31]: 198 IU/l.; average of CK activity values [3, 32]: 168 IU/l.; average of CK activity values [3, 33]: 190 IU/l.; relative value of CK activity ([3]; stored at 10° C. for 1 month): 99.0%; relative value of CK activity ([3]; stored at 10° C. for 3 month): 99.0%; relative value of CK activity ([3]; stored at 10° C. for 6 month): 100.0%; relative value of CK activity ([3]; stored at 10° C. for 7 month): 99.0%
